Patent publication US8173841B2, “Tetrahydro-naphthalene derivatives” (Xention Limited, priority 2003, dated 2012)

How the values were obtained:
[1] = molecular target: T1, human VR1 (Homo sapiens, UniProt Q8NER1); assay: Capsaicin-induced Ca2+ influx in the human VR1-transfected CHO cell line (Assay 1); type: cell-based; conditions: human VR1-CHOluc9aeq cells, stimulation with 10 nM capsaicin, Fluo-3 AM / FDSS-3000; compounds of purity about 40 to 90%; read-out: Activity Class (IC50 of capsaicin-induced Ca2+ influx)
T1 construct: expressed in transfected cells
From the text: [Measurement of Capsaicin-Induced Ca^2+ Influx in the Human VR1-Transfected CHO Cell Line] (Assay 1)
(1) Establishment of the Human VR1-CHOluc9aeq Cell Line
Human vanilloid receptor (hVR1) cDNA was cloned from libraries of axotomized dorsal root ganglia (WO 00/29577). The cloned hVR1 cDNA was constructed with pcDNA3 vector and transfected into a CHOluc9aeq cell line. The cell line contains aequorin and CRE-luciferase reporter genes as read-out signals. The transfectants were cloned by limiting dilution in selection medium (DMEM/F12 medium (Gibco BRL) supplemented with 10% FCS, 1.4 mM Sodium pyruvate, 20 mM HEPES, 0.15% Sodium bicarbonate, 100 U/ml penicillin, 100 μg/ml streptomycin, 2 mM glutamine, non-essential amino acids and 2 mg/ml G418). Ca^2+ influx was examined in the capsaicin-stimulated clones. A high responder clone was selected and used for further experiments in the project. The human VR1-CHOluc9aeq cells were maintained in the selection medium and passaged every 3-4 days at 1−2.5×10^5 cells/flask ([…]).
(2) Measurement of Ca^2+ influx using FDSS-3000
Human VR1-CHOluc9aeq cells were suspended in a culture medium which is the same as the selection medium except for G418 and seeded at a density of 1,000 cells per well into 384-well plates (black walled clear-base/Nalge Nunc International). Following the culture for 48 hrs the medium was changed to 2 μM Fluo-3 AM (Molecular Probes) and 0.02% Puronic F-127 in assay buffer (Hank's balanced salt solution (HBSS), 17 mM HEPES (pH7.4), 1 mM Probenecid, 0.1% BSA) and the cells were incubated for 60 min at 25° C. After washing twice with assay buffer the cells were incubated with a test compound or vehicle for 20 min at 25° C. Mobilization of cytoplasmic Ca^2+ was measured by FDSS-3000 (λex=488 nm, λem=540 nm/Hamamatsu Photonics) for 60 sec after the stimulation with 10 nM capsaicin. Integral R was calculated and compared with controls.
The data corresponds to the compounds as yielded by solid phase synthesis and thus to levels of purity of about 40 to 90%. For practical reasons, the compounds are grouped in four classes of activity as follows: IC50=A (< or =) 0.1 μM<B (< or =) 0.5 μM<C (< or =) 1 μM<D

T1 sequence (Q8NER1 whole entry): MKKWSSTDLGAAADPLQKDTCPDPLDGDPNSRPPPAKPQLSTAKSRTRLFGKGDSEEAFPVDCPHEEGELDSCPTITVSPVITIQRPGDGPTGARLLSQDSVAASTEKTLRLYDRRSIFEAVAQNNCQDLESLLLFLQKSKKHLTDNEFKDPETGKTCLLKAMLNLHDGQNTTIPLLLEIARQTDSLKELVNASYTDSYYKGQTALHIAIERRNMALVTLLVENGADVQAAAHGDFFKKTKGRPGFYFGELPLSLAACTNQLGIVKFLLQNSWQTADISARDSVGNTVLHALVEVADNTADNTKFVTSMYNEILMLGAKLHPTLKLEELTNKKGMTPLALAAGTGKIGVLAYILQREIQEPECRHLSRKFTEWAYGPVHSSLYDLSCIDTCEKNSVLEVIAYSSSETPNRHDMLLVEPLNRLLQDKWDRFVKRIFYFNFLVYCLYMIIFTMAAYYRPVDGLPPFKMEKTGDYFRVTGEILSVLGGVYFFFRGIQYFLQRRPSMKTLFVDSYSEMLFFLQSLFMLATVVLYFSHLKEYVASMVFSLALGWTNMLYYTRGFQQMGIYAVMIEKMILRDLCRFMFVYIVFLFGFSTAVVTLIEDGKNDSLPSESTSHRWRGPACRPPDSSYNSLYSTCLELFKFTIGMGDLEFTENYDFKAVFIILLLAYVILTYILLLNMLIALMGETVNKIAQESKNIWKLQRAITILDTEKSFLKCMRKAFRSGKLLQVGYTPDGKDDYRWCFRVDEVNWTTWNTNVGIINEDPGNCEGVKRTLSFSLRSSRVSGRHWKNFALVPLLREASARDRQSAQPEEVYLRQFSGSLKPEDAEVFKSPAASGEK

IC50 [1] [nM]	melting point	SMILES
< 100	152 to 153 °C	O=C(NCc1cccc(-c2ccc(Cl)cc2Cl)c1)Nc1cccc2c1CC(O)CC2 (stereo not drawn) [Example 1-72]
< 100	206 to 207 °C	O=C(NCc1ccc(-c2cccc([N+](=O)[O-])c2)cc1)Nc1cccc2c1CC(O)CC2 (stereo not drawn) [Example 1-54]
< 100	204 to 205 °C	O=C(NCc1ccc(-c2c(F)cccc2F)cc1)Nc1cccc2c1CC(O)CC2 (stereo not drawn) [Example 1-50]
< 100	142 to 144 °C	CCOC(=O)c1cccc(-c2cccc(NC(=O)Nc3cccc4c3CC(O)CC4)c2)c1 (stereo not drawn) [Example 1-6]
< 100	175 to 176 °C	O=C(NCc1cccc(-c2cccc(OC(F)(F)F)c2)c1)Nc1cccc2c1CC(O)CC2 (stereo not drawn) [Example 1-56]
500 to 1000	> 134 °C (dec.)	O=C(Cc1cccc(-c2ccccc2)c1)Nc1cccc2c1CC(O)CC2 (stereo not drawn) [Example 3-1, 2-Biphenyl-3-yl-N-(7-hydroxy-5,6,7,8-tetrahydronaphthalen-1-yl)acetamide]
< 100	215 to 217 °C	O=C(Nc1cccc2c1CC(O)CC2)c1ccc(-c2ccccc2)cc1 (stereo not drawn) [Example 2-4]
< 100	209 °C	O=C(Nc1cccc(-c2cc(Cl)ccc2Cl)c1)Nc1cccc2c1CC(O)CC2 (stereo not drawn) [Example 1-22]
< 100	196 to 197 °C	O=C(NCc1ccc(-c2cccc(C(F)(F)F)c2)cc1)Nc1cccc2c1CC(O)CC2 (stereo not drawn) [Example 1-44]
< 100	191 to 192 °C	O=C(NCc1cccc(-c2cccc([N+](=O)[O-])c2)c1)Nc1cccc2c1CC(O)CC2 (stereo not drawn) [Example 1-63]
< 100	187 to 188 °C	O=C(NCc1ccc(-c2ccccc2F)cc1)Nc1cccc2c1CC(O)CC2 (stereo not drawn) [Example 1-48]
< 100	210 °C	O=C(Nc1cccc(-c2cccc(C(F)(F)F)c2)c1)Nc1cccc2c1CC(O)CC2 (stereo not drawn) [Example 1-23]
< 100	205 to 206 °C	Cc1cc(C)cc(-c2ccc(CNC(=O)Nc3cccc4c3CC(O)CC4)cc2)c1 (stereo not drawn) [Example 1-51]
< 100	198 to 200 °C	CCOC(=O)c1ccc(-c2cccc(NC(=O)Nc3cccc4c3CC(O)CC4)c2)cc1 (stereo not drawn) [Example 1-2]
< 100	207 to 208 °C	CN(C)c1ccc(-c2cccc(CNC(=O)Nc3cccc4c3CC(O)CC4)c2)cc1 (stereo not drawn) [Example 1-57]
< 100		O=C(Nc1cccc(-c2cc(F)cc(F)c2)c1)Nc1cccc2c1CC(O)CC2 (stereo not drawn) [Example 1-11]
< 100	204 to 205 °C	O=C(NCc1ccc(-c2cc(Cl)cc(Cl)c2)cc1)Nc1cccc2c1CC(O)CC2 (stereo not drawn) [Example 1-53]
< 100	177 to 178 °C	O=C(NCc1ccc(-c2ccc(Cl)cc2Cl)cc1)Nc1cccc2c1CC(O)CC2 (stereo not drawn) [Example 1-40]
< 100	223 °C	O=C(Nc1cccc(-c2cccc3ccccc23)c1)Nc1cccc2c1CC(O)CC2 (stereo not drawn) [Example 1-75]
< 100	221 °C	O=C(Nc1cccc(-c2cc(Cl)cc(Cl)c2)c1)Nc1cccc2c1CC(O)CC2 (stereo not drawn) [Example 1-19]
< 100	188 to 189 °C	O=C(NCc1cccc(-c2ccc(F)c(Cl)c2)c1)Nc1cccc2c1CC(O)CC2 (stereo not drawn) [Example 1-71]
< 100	191 to 192 °C	O=C(NCc1ccc(-c2ccc(F)c(F)c2)cc1)Nc1cccc2c1CC(O)CC2 (stereo not drawn) [Example 1-41]
< 100	197 to 198 °C	Cc1cc(C)cc(-c2cccc(CNC(=O)Nc3cccc4c3CC(O)CC4)c2)c1 (stereo not drawn) [Example 1-67]
< 100	211 to 212 °C	Cc1ccc(-c2ccc(CNC(=O)Nc3cccc4c3CC(O)CC4)cc2)cc1 (stereo not drawn) [Example 1-32]
< 100	208 °C	O=C(Nc1cccc(-c2ccc(Cl)cc2Cl)c1)Nc1cccc2c1CC(O)CC2 (stereo not drawn) [Example 1-21]
< 100	281 to 284 °C	O=C(Nc1cccc(-c2ccc(C(=O)O)cc2)c1)Nc1cccc2c1CC(O)CC2 (stereo not drawn) [Example 1-4]
< 100	195 to 196 °C	O=C(NCc1ccc(-c2cccc(Cl)c2)cc1)Nc1cccc2c1CC(O)CC2 (stereo not drawn) [Example 1-33]

IC50 [1] [nM]	melting point	SMILES
< 100	201 to 202 °C	O=C(NCc1ccc(-c2ccc(F)cc2)cc1)Nc1cccc2c1CC(O)CC2 (stereo not drawn) [Example 1-45]
< 100	238 °C	O=C(Nc1cccc(-c2cccc([N+](=O)[O-])c2)c1)Nc1cccc2c1CC(O)CC2 (stereo not drawn) [Example 1-28]
< 100	202 to 203 °C	CC(C)c1ccc(-c2ccc(CNC(=O)Nc3cccc4c3CC(O)CC4)cc2)cc1 (stereo not drawn) [Example 1-52]
< 100	223 to 224 °C	COc1ccc(-c2cccc(CNC(=O)Nc3cccc4c3CC(O)CC4)c2)cc1OC (stereo not drawn) [Example 1-62]
< 100	141 to 142 °C	O=C(NCc1cccc(-c2c(F)cccc2F)c1)Nc1cccc2c1CC(O)CC2 (stereo not drawn) [Example 1-69]
< 100	216 °C	CC(=O)c1ccc(-c2cccc(NC(=O)Nc3cccc4c3CC(O)CC4)c2)cc1 (stereo not drawn) [Example 1-27]
< 100	191 to 192 °C	O=C(NCc1ccc(-c2ccc(F)cc2F)cc1)Nc1cccc2c1CC(O)CC2 (stereo not drawn) [Example 1-49]
< 100	215 to 216 °C	COc1ccc(-c2ccc(CNC(=O)Nc3cccc4c3CC(O)CC4)cc2)cc1 (stereo not drawn) [Example 1-31]
< 100	204 °C	O=C(Nc1cccc(-c2cccc(Cl)c2Cl)c1)Nc1cccc2c1CC(O)CC2 (stereo not drawn) [Example 1-20]
< 100	188 to 189 °C	O=C(NCc1cccc(-c2ccc(F)c(F)c2)c1)Nc1cccc2c1CC(O)CC2 (stereo not drawn) [Example 1-65]
< 100	221 °C	Cc1cc(C)cc(-c2cccc(NC(=O)Nc3cccc4c3CC(O)CC4)c2)c1 (stereo not drawn) [Example 1-12]
500 to 1000	150 to 151.2 °C	COc1ccc(-c2cccc(C(=O)N(C)c3cccc4c3CC(O)CC4)c2)cc1 (stereo not drawn) [Example 2-3]
< 100		O=C(Nc1cccc(-c2ccccc2Cl)c1)Nc1cccc2c1CC(O)CC2 (stereo not drawn) [Example 1-8]
< 100	188 to 189 °C	O=C(NCc1cccc(-c2ccc(OC(F)(F)F)cc2)c1)Nc1cccc2c1CC(O)CC2 (stereo not drawn) [Example 1-58]
< 100	210.4 to 212.7 °C	O=C(Nc1cccc2c1CC(O)CC2)c1ccc(-c2ccc(F)c(F)c2)cc1 (stereo not drawn) [Example 2-1, 3′,4′-Difluoro-N-(7-hydroxy-5,6,7,8-tetrahydronaphthalen-1-yl)biphenyl-4-carboxamide]
500 to 1000	205 to 206 °C	COc1ccc(-c2ccc(CNC(=O)Nc3cccc4c3CC(O)CC4)cc2)cc1OC (stereo not drawn) [Example 1-47]
< 100	204 °C	COc1cccc(-c2cccc(NC(=O)Nc3cccc4c3CC(O)CC4)c2)c1 (stereo not drawn) [Example 1-13]
< 100	208 to 209 °C	O=C(NCc1cccc(-c2cc(C(F)(F)F)cc(C(F)(F)F)c2)c1)Nc1cccc2c1CC(O)CC2 (stereo not drawn) [Example 1-59]
< 100	197 to 198 °C	O=C(NCc1cccc(-c2ccc(F)cc2F)c1)Nc1cccc2c1CC(O)CC2 (stereo not drawn) [Example 1-64]
< 100		CSc1ccc(-c2cccc(NC(=O)Nc3cccc4c3CC(O)CC4)c2)cc1 (stereo not drawn) [Example 1-10]
< 100	190 °C	COc1ccc(OC)c(-c2cccc(NC(=O)Nc3cccc4c3CC(O)CC4)c2)c1 (stereo not drawn) [Example 1-15]
< 100	195 to 196 °C	CSc1ccc(-c2cccc(CNC(=O)Nc3cccc4c3CC(O)CC4)c2)cc1 (stereo not drawn) [Example 1-68]
< 100		O=C(Nc1cccc(-c2ccc(OCCN3CCOCC3)cc2)c1)Nc1cccc2c1CC(O)CC2 (stereo not drawn) [Example 1-29]
< 100		O=C(Nc1cccc(-c2ccccc2C(F)(F)F)c1)Nc1cccc2c1CC(O)CC2 (stereo not drawn) [Example 1-9]
500 to 1000		O=C(Cc1cccc(-c2ccc(F)cc2)c1)Nc1cccc2c1CC(O)CC2 (stereo not drawn) [Example 3-2]
< 100		O=C(Nc1cccc(-c2ccc(C(F)(F)F)cc2)c1)Nc1cccc2c1CC(O)CC2 (stereo not drawn) [Example 1-7]
